The numbers were not newly measured in patent US20080279952A1, “Controlled-Release Flupirtine Compositions, Compacts, Kits and Methods of Making and Use Thereof” (priority 2007, published 2008), which cites them from elsewhere.

Structures are written as SMILES.

For series [1] the following is noted: in vivo.
For series [2] the following is noted: in vivo. The source holds these as a separate data set.

Consider `CC(=O)Nc1ccc(NCc2ccc(F)cc2)nc1N` [2-amino-3-acetamino-6-(4-fluor)-benzyl-amino-pyridine], for which the “analgesic effect as percentage of that of flupirtine” value in series [1] is reported as “about 25%”. In the case of `CCOC(=O)Nc1ccc(NCc2ccc(F)cc2)nc1N` [flupirtine], the “portion of the administered dose metabolized in the liver” value in series [2] is listed as “Approximately 75%”.
